Literature values as cited in article PMC4621754, “Parasitic diarrheal disease: drug development and targets” (Frontiers in Microbiology, 2015).
Where two headings read alike, the source gives them in different places.

Key:
[1] = system: E. histolytica
[2] = system: G. lamblia
[3] = system: I. belli; conditions: for cure of I. belli induced diarrhea: ref Trier et al., 1974, Syrkis et al., 1975, Butler and De Boer, 1981, Weiss et al.; for cure of diarrheal disease caused by I. belli: ref Ferguson et al., 1980, Ebrahimzadeh and Bottone, 1996
[4] = HM1: IMSS strain, ref Wani et al., 2012b
[5] = HM1:IMSS strain, ref Duque-Montaño et al., 2013
[6] = in vitro, ref Torres-Gomez et al., 2008b
[7] = ref Hernández-Nunez et al., 2009
[8] = ref Navarrete-Vazquez et al., 2003
[9] = in vitro, ref Hernández-Nunez et al., 2009

Compound: 1,1^∕-(10,15-diphenyl-21,23-dithiaporphine-5,20-diyl)bis[2-{[methyl(phenylmethyl)amino]methyl}-ferrocene] [Compound 34]
- IC50 ([1]; in vitro, HM1:IMSS strain, ref Bhat et al., 2009b): 0.59 µM

Compound: Cc1ccc(/C=C/C(=O)c2ccc(C)cc2)cc1 [Compound 25, (2E)-1,3-bis(4-methylphenyl)prop-2-en-1-one]
- IC50 [1, 4]: 4.19 µM

Compound: COc1ccc(-c2nnnn2CC(=O)N2N=C(c3ccccc3)CC2c2ccc(OC)cc2)cc1 (stereo not shown) [Compound 26, 1-(4,5-dihydro-5-(4-methoxyphenyl)-3-phenylpyrazol-1-yl)-2-(5-(4-methoxyphenyl)-1H-tetrazol-1-yl)ethanone]
- IC50 [1, 4]: 1.16 µM

Compound: O=[N+]([O-])c1ccc(S(=O)(=O)Nc2nc(NS(=O)(=O)c3ccc([N+](=O)[O-])cc3)nc(-c3ccc4c(c3)OCO4)n2)cc1 [Compound 27, N, N^∕-6-(1,3-benzodioxol-5-yl)-(1,3,5-triazine-2,4-diyl)-bis-4-nitrobenzene sulphonamide]
- IC50 ([1]; ref Wani et al., 2012a): 1.02 µM

Compound: O=S(=O)(Nc1nc(-c2ccccc2)cc(-c2ccccc2Cl)n1)c1ccccc1 [Compound 28, N-[4-(2-chlorophenyl)-6-phenylpyrimidin-2-yl]-benzenesulphonamide]
- IC50 ([1]; in vitro, ref Siddiqui and Azam, 2014): 0.44 µM

Compound: COc1ccc(C2ON=C(c3ccc([N+](=O)[O-])s3)O2)cc1 (stereo not shown) [Compound 29, 5-(4-methoxy-phenyl)-3-(5-nitro-2-thienyl)-1,4,2-dioxazole]
- IC50 ([1]; in vitro, ref Irfan et al., 2010): 1.6 µM

Compound: Cc1cccc(NC(=S)NN=Cc2ccc(-c3c4nc(c(-c5ccccc5)c5ccc([nH]5)c(-c5ccccc5)c5nc(c(-c6ccccc6)c6ccc3[nH]6)C=C5)C=C4)cc2)c1 [Compound 30, 4-(3-methylphenyl)-1-{[4-(10,15,20-triphenylporphyrin-5-yl)phenyl]methylidene}thiosemicarbazide]
- IC50 ([1]; ref Bhat et al., 2008): 0.538 µM

Compound: CC(=NNC(=S)NCc1ccc(C)cc1)c1c(O)ccc2ccc(=O)oc12 [Compound 31, 7-hydroxy-8-acetylcoumarin-N(4,4)methylbenzyl thiosemicarbazone]
- IC50 ([1]; ref Iqbal et al., 2009): 1.06 µM

Compound: O=[N+]([O-])c1ccc(NC(=S)N2N=C(c3ccccc3)CC2c2ccc(C3CC(c4ccccc4)=NN3C(=S)Nc3ccc([N+](=O)[O-])cc3)cc2)cc1 (stereo not shown) [Compound 32]
- IC50 ([1]; ref Bhat et al., 2009a): 0.42 µM

Compound: CC(C)c1ccccc1C1CC(c2ccccc2)=NN1c1nc2nc3ccccc3nc2s1 (stereo not shown) [Compound 33, 2-{5-[2-(methylethyl)phenyl]-3-phenyl-2-pyrazolinyl}-1,3-thiazolino[5,4-b]quinoxaline]
- IC50 ([1]; HM1:IMSS strain, ref Budakoti et al., 2009): 0.17 µM

Compound: COC(=O)c1ccc2c(c1)[n+]([O-])c(C(C)=O)c(C)[n+]2[O-] [Compound 37, methyl 2-acetyl-3-methyl-quinoxaline-7-carboxylate 1,4-di-N-oxide]
- IC50 [1, 5]: 1.41 µM

Compound: CCOC(=O)c1ccc2c(c1)[n+]([O-])c(C(N)=O)c(C)[n+]2[O-] [Compound 38, ethyl 2-amide-3-methylquinoxaline-7-carboxylate 1,4-di-N-oxide]
- IC50 [1, 5]: 1.47 µM

Compound: COc1ccc(NC(=O)C(N)CCSC(F)(F)F)cc1OC (stereo not shown) [Compound 40, 3,4-dimethoxyanilide trifluoromethionine]
- IC50 ([1]; in vitro, ref Sato et al., 2010): 1.19 µM

Compound: COc1ccc2[nH]c(-c3ccc(OCCCCCOc4ccc(-c5nc6cc(OC)ccc6[nH]5)cc4)cc3)nc2c1 [Compound 41, 1,5-bis[4-(5-methoxy-1H-benzimidazole-2-yl)phenoxy]pentane]
- IC50 [1, 6]: 0.109 µM

Compound: Cc1nc([N+](=O)[O-])cn1CC(=O)NCc1ccccc1 [Compound 42, N-benzyl-2-(2-methyl-4-nitro-1H-imidazol-1-yl)acetamide]
- IC50 [1, 7]: 3.96 µM

Compound: Cc1ccc(S(=O)(=O)n2cc([N+](=O)[O-])nc2C)cc1 [Compound 43, 2-methyl-1-[(4-methylphenyl)sulfonyl]-4-nitro-1H-imidazole]
- IC50 [1, 7]: 3.55 µM

Compound: O=[N+]([O-])c1cccc(/C=N/Nc2ccccc2)c1 [Compound 44, (E)-1-(3-nitrobenzylidene)-2-phenylhydrazine]
- IC50 ([1]; in vitro, HM1:IMSS strain, ref Toledano-Magana et al., 2015): 0.84 µM

Compound: COc1ccc(Nc2c(C#N)cnc3sccc23)cc1 [Compound 58, 4-(4-methoxyphenylamino)thieno[2,3-b]pyridine-5-carbonitrile]
- giardicidal effect ([2]; ref Bernardino et al., 2006): excellent giardicidal effect

Compound: COc1cc(-c2nc3cc(C)ccc3[nH]2)ccc1OCCCCCOc1ccc(-c2nc3cc(C)ccc3[nH]2)cc1OC [Compound 59, 1,5-bis[2-methoxy-4-(5-methyl-1H-benzimidazole-2-yl)phenoxy] pentane]
- IC50 [2, 6]: 0.372 µM
- IC50 ([2]; ref Torres-Gomez et al., 2008a): 0.372 µM
- folds more potent than metronidazole ([2]; ref Torres-Gomez et al., 2008a): 3 folds
- folds more potent than pentamidine ([2]; ref Torres-Gomez et al., 2008a): 9 folds
- fold more activity than metronidazole ([2]; ref Torres-Gomez et al., 2008b): 3 fold
- fold more activity than pentamidine ([2]; ref Torres-Gomez et al., 2008b): 9 fold

Compound: Cn1c(C(F)(F)F)nc2cc(Cl)ccc21 [Compound 60, 5-chloro-1-methyl-2-(trifluoromethyl)benzimidazole]
- IC50 ([2]; in vitro, ref Gabriel Navarrete-Vaa Zquez et al., 2001): 0.042 µM

Compound: COc1ccc(C(=O)/C=C/c2ccccc2F)cc1 [Compound 61, (E)-3-(6-flourophenyl)-1-(4-methoxyphenyl)prop-2-en 1-one]
- IC50 ([2]; ref Montes-Avila et al., 2009): 12.7 µM

Compound: CCCSc1ccc2nc(C(F)(F)F)n(C)c2c1 [Compound 63, 1-methyl-6-(propylthio)-2-(trifluoromethyl)-1H-benzimidazole]
- IC50 [2, 8]: 1.4 µM

Compound: CCCSc1ccc2[nH]c(C(F)(F)F)nc2c1 [Compound 64, 5(6)-(propylthio) -2-(trifluoromethyl)-1H-benzimidazole]
- IC50 [2, 8]: 1.52 µM

Compound: Cn1c(C(F)(F)F)nc2cc(C(=O)c3ccccc3)ccc21 [Compound 65, 5-benzoyl-1-methyl-2-(trifluoromethyl)-1H-benzimidazole]
- IC50 [2, 8]: 1.1 µM

Compound: Cn1c(C(F)(F)F)nc2ccc(C(=O)c3ccccc3)cc21 [Compound 66, 6-benzoyl-1-methyl-2-(trifluoromethyl)-1H-benzimidazole]
- IC50 [2, 8]: 1.28 µM

Compound: COc1cc(NC(c2coc3ccccc3c2=O)c2nnnn2C2CCCCC2)cc(OC)c1OC (stereo not shown) [Compound 67, 3-((1-cyclohexyl-1H-tetrazol-5-yl)((3,4,5-trimethoxyphenyl)amino)methyl)-4H-chromen-4-one]
- IC50 ([2]; ref Cano et al., 2014): 171 µM

Compound: Cc1nc([N+](=O)[O-])cn1CC(=O)Nc1ccc(C#N)cc1 [Compound 72, N-(4-cyanophenyl)-2-(2-methyl-4-nitro-1H-imidazol-1-yl) acetamide]
- IC50 [2, 9]: 11.2 µM

Compound: Cc1nc([N+](=O)[O-])cn1S(=O)(=O)c1ccc([N+](=O)[O-])cc1 [Compound 73, 2-methyl-4-nitro-1-[(4-nitrophenyl)sulfonyl]-1H-imidazole]
- IC50 [2, 9]: 7.5 µM

Compound: O=C1OCCN1/N=C/c1ccc([N+](=O)[O-])o1 [furazolidone, Furazolidone]
- cure of I. belli induced diarrhea [3]; 1988: cure the I. belli induced diarrhea but to lesser extent

Compound: CCc1nc(N)nc(N)c1-c1ccc(Cl)cc1 [pyrimethamine]
- cure of diarrheal disease caused by I. belli [3]: cure the diarrheal disease

Compound: CCN(CC)CCCC(C)Nc1c2ccc(Cl)cc2nc2ccc(OC)cc12 (stereo not shown) [quinacrine]
- cure of I. belli induced diarrhea [3]; 1988: cure the I. belli induced diarrhea but to lesser extent

Compound: CC[C@H]1OC(=O)[C@H](C)[C@@H](O[C@H]2C[C@@](C)(OC)[C@@H](O)[C@H](C)O2)[C@H](C)[C@@H](O[C@@H]2O[C@H](C)C[C@H](N(C)C)[C@H]2O)[C@](C)(O)C[C@@H](C)/C(=N\OCOCCOC)[C@H](C)[C@@H](O)[C@]1(C)O [roxithromycin]
- efficacy in chronic I. belli induced diarrhea ([3]; when TMP-SMX or pyrimethamine treatments become inadequate, ref Musey et al., 1988): effective

Compound: Nc1ccc(S(=O)(=O)Nc2ncccn2)cc1 [sulfadiazine]
- cure of diarrheal disease caused by I. belli [3]: cure the diarrheal disease

Compound: Ni(Fctpy)2][PF6]2 [Compound 22]
- activity against E. histolytica ([1]; ref Juneja et al., 2014): most promising activity

Compound: cyclosporine A [reference compound]
- proliferation of E. histolytica ([1]; ref Carrero et al., 2004): inhibits proliferation
